The record followed here is patent US11155552B2, “Rutaecarpine analogs and applications thereof” (TAIPEI MEDICAL UNIVERSITY, priority 2018, dated 2021).

Data set [1] relates to KLF10 KO mice. Put plainly: Blood-air-barrier thickness by TEM in OVA/Alum-challenged KLF10 KO mice. In kind it is in vivo. As to conditions: KLF-10 KO mice; oral; OVA/Alum group 586 nm, control group 348 nm; FIG. 6. As to the method: Blood-Air-Barrier (alveolar-capillary membrane), gas exchanging region of the lungs, was measured to perform the lung function. After the KLF-10 KO mice were challenged with OVA/Alum and oral administration of RUT or F-RUT, the lung was harvested to measure the thickness of blood-air-barrier by TEM. The average thickness of blood-air-barrier was significant increased in OVA/Alum group (586 nm compared to 348 nm in control group) and reversed by RUT or F-RUT (418 and 393 nm, respectively), see FIG. 6.

The subject of data set [2] is KLF10 KO mice. The data set can be described thus: Lung inflammation and collagen formation in OVA/alum-challenged KLF10 KO mice. In kind it is in vivo. As for the experimental part: (§1) BALB/c mice (six weeks of age) were obtained from the Animal Center of the College of Medicine, National Taiwan University (Taipei, Taiwan), and sensitized with an intraperitoneal injection of 20 μg of ovalbumin (OVA) emulsified in 2 mg of aluminum hydroxide in a total volume of 200 μL phosphate-buffered saline (PBS) on day 0, and boosted with 50 μg of OVA emulsified in 4 mg of aluminum hydroxide on days 14 and 28. RUT or F-RUT was given by oral administration on days 30, 32, 34, 36, and 38. For post-challenge, all mice were treated intranasally with OVA (100 μg in a total volume of 40 μL PBS) on days 40, 41, 42, and 43. At 24 h after the last OVA challenge, mice were sacrificed, and their organs were collected. All experimental procedures were reviewed and approved by the Institutional Animal Care and Use Committee or Panel. Lung tissues were fixed in 4% paraformaldehyde (sc-281692; Santa Biotechnology) and embedded in paraffin. Tissue sections were made at a 5-μm thickness, and stained with hematoxylin and eosin (H&E) solution for examination of inflammation.
KLF10 gene is regulated by transforming growth factor (TGF)-β/Smad. Deletion of Klf10 in mice is associated with significant inflammation of the lungs challenged with OVA/alum for 44 days. In another experiment, KLF-10 KO mice was used. […]

In the next data set the test system is iNOS. Put plainly: iNOS protein expression in LPS-treated RAW264.7 macrophages (Western blot). In kind it is cell-based. Conditions: FIG. 2(a). As to the method: (§2) Protein samples were separated and resolved by sodium dodecylsulfate polyacrylamide gel electrophoresis (SDS-PAGE) and electrotransferred onto a polyvinylidene difluoride (PVDF) membrane. The membrane was incubated with a primary antibody at 4° C. overnight, and then incubated with a horseradish peroxidase (HRP)-conjugated secondary immunoglobulin G (IgG) antibody; immunoreactive bands were visualized with PerkinElmer enhanced chemiluminescent reagents.

The test system of data set [3] is COX-2. Put plainly: COX-2 enzyme activity.
For the next data set, the system named is BALB/c mice. The data set can be described thus: Lung inflammation in OVA/alum-challenged BALB/c mice. In kind it is in vivo. As to conditions: alternate-day oral administration, FIG. 5(a). As to the method: as §1
Data set [4] has as its system COX-2. The data set can be described thus: COX-2 protein expression in LPS-treated RAW264.7 macrophages (Western blot). In kind it is cell-based. As to conditions: FIG. 2(a). As for the experimental part: as §2
Background: In western blotting, separated proteins are transferred to a membrane and probed.

The subject of a further data set is CL1-3. The data set can be described thus: MTT cell viability assay, CL1-3. In kind it is cell-based. Conditions: CL1-3 cells; 0-20 μM; 24 h; FIG. 1(c). As for the experimental part:
(§3) An MTT assay to test cell viability was performed based on the conversion of the yellow tetrazolium salt to the purple formazan product. Cells (10^4 cells/well) were grown in a 96-well plate supplemented with standard culture medium. Cells were treated with RUT and F-RUT (0-20 μM) for 24 h. An MTT stock solution (5 mg of MTT/mL of phosphate-buffered saline; PBS) was added to the growing cultures for 2 h. The absorbance was measured with a spectrophotometer at 560 nm. DMSO alone was measured as a reading control. Data were reported as the mean±SEM values of five independent determinations.
A general note: Formazan colour is commonly taken as a measure of viable cells.

A further data set has as its system TNF-α. The data set can be described thus: TNF-α release by LPS-treated RAW264.7 macrophages (mouse TNF-α Quantikine kit). In kind it is cell-based. Conditions: FIG. 1(b). As for the experimental part:
FIGS. 1A thru 1C show the effects of 10-fluoro-2-methoxyrutaecarpine (F-RUT) on nitric oxide (NO) and tumor necrosis factor (TNF)-α release by lipopolysaccharide (LPS)-treated (40 ng/mL) RAW264.7 macrophages: (a) NO levels were detected in culture medium using the Griess reaction; (b) TNF-α release in cell supernatants was detected using a mouse TNF-α Quantikine kit; (c) Cell viability upon F-RUT and rutaecarpine (RUT) treatment for 24 h in an MTT assay. Values are expressed as the mean±SE. *p<0.05, **p<0.01.
(§4) NO production was evaluated by measuring the nitrite concentration in supernatants of cultured RAW264.7 macrophages. Cells were first seeded at a density of 2×10^5 cells/mL in 24-well plates for 24 h, followed by co-treatment with different concentrations of F-RUT with lipopolysaccharide (LPS) (40 ng/mL) for another 24 h. The amount of nitrite in cell culture supernatants was detected using the Griess reagent (1% sulfanilamide in 5% phosphoric acid and 0.1% naphthylethylenediamine dihydrochloride in water). Data are reported as the mean±standard error of the mean (SEM) values of three independent determinations.

The test system of the next data set is RAW264.7. Put plainly: MTT cell viability assay, RAW264.7. In kind it is cell-based. As to the method: as §3
Another data set relates to zebrafish. The data set can be described thus: LPS-induced ROS level in zebrafish. Conditions: 5 ng/ml F-RUT, LPS 10 and 20 ng/ml, FIG. 7. In kind it is in vivo.
The test system of a further data set is RAW264.7 macrophages. Put plainly: NO production (nitrite, Griess reagent) by LPS-treated RAW264.7 macrophages. In kind it is cell-based. As to conditions: LPS 40 ng/mL co-treatment 24 h; 0-20 μM; FIG. 1(a). As to the method:
The RAW264.7 macrophage cell line and A2780 ovarian carcinoma cells were grown in Dulbecco's modified Eagle medium (DMEM) containing 10% fetal bovine serum (FBS), 100 U/mL penicillin, 100 μg/mL streptomycin, 1 mM sodium pyruvate, 4.5 g/L glucose, 4 mM 1-glutamine, and 1.5 g/L sodium bicarbonate at 37° C. in a humidified atmosphere with 5% CO2. Primary human aortic ECs (HAECs) were grown in a MesoEndo Endothelial Cell Growth Medium Kit (Cell Applications, San Diego, Calif., USA) supplemented with 10% FBS at 37° C. in a humidified atmosphere with 5% CO2.
as §4
For orientation: Griess reagent forms a coloured azo dye with nitrite.

The next data set deals with NF-κB. Put plainly: NF-κB-dependent luciferase reporter assay in LPS-induced macrophages. In kind it is cell-based. Conditions: 0-2.5 μM; LPS 40 ng/mL 24 h; FIG. 2(b). As to the method:
RAW264.7 macrophages were seeded in a 96-well plate with DMEM. Then, cells were transfected with the pGL4.32 [luc2P/NF-κB-RE/Hygro] (Promega, Madison, Wis., USA) plasmid reporter gene using TurboFect Transfection Reagent (Fermentas, Glen Burnie, Md., USA). At 24 h after transfection, cells were treated with LPS (40 ng/mL) and F-RUT for 24 h in serum-free medium. Then the luciferase activity was detected by the luminescence measured in a luminescence microplate reader (Thermo Varioskan Flash, Waltham, Mass., USA) using a ONE-Glo luciferase assay kit (Promega). Luciferase activities were normalized to protein concentrations.

Data set [5] has as its system A2780 cells. The data set can be described thus: Transwell Matrigel cell invasion assay. In kind it is cell-based. Conditions: 0-2.5 μM, 24 h, FIG. 3(b). As for the experimental part: A2780 cell invasion was evaluated using 24-well transwell inserts (8-μm-pore filters, Merck Millipore) individually coated with Matrigel (BD Biosciences, Bedford, Mass., USA). A2780 cells (2×10^4 cells in each well) were cultured for 24 h with serum-free minimum essential medium (MEM) and then treated with F-RUT (1.25 or 2.5 μM) for another 24 h in the upper chamber of the transwell. Medium containing 10% FBS was placed in the lower chamber. At the end of incubation, non-migrated cells were removed using a cotton swab; cells that had penetrated to the opposite surface of the filter were fixed with 4% formaldehyde and stained with 2% crystal violet. Stained cells were counted and photographed under a phase-contract optical microscope at 200× magnification. Three independent experiments were performed as described elsewhere.

The subject of data set [6] is A2780 cells. Put plainly: Wound-healing cell migration assay. In kind it is cell-based. As to conditions: 0-5 μM, 0-24 h, FIG. 3(a). As to the method: A2780 cells were cultured at a density of 2×10^5 cells/well in 6-well plates and incubated at 37° C. for 24 h. A centerline in the cells was scratched using a 200-μL pipette tip and washed with PBS. Then, new complete medium was added and treated with or without 1 and 2.5 μM of F-RUT for 24 h. At the endpoint of incubation, cells were examined and photographed with an optical microscope. The distance between the edges of the scratched area was measured and calculated to estimate the migratory ability of cells.
As illustrated in FIG. 3(a), wound-healing assays used an ovarian carcinoma A2780 cell line in the presence of F-RUT (0-5 μM) for 0-24 h. The migration rate was measured using imaging software, and Student's t-test was used for the statistical analysis.

The next data set relates to eNOS. Put plainly: eNOS phosphorylation in human aortic endothelial cells (immunoblotting). In kind it is cell-based. Conditions: HAECs; 20 μM; 15 min; normalized with total eNOS. As to the method: as §2
(§5) TRPV1 is reportedly present in ECs of arteries. To validate the expression of TRPV1 in the endothelium, the TRPV1 protein of human aortic ECs (HAECs) was detected using immunoblotting; the method of Western Blot Analysis has been stated in Example 4. F-RUT treatment (20 μM) for 15 min increased TRPV1 protein amounts two-fold compared to the control group after normalization with α-tubulin levels (FIG. 4). The effect of F-RUT on the phosphorylation of eNOS in HAECs is further examined because NO production is consequently regulated by the phosphorylation of eNOS.

A further data set deals with TRPV1. Put plainly: TRPV1 protein in human aortic endothelial cells (immunoblotting). In kind it is cell-based. Conditions: HAECs; 20 μM; 15 min; normalized with α-tubulin. As to the method:
as §2, §5

Another data set relates to H460. Put plainly: MTT cell viability assay, H460. As to conditions: H460 cells; 0-20 μM; 24 h; FIG. 1(c). In kind it is cell-based. As for the experimental part:
as §3

As for `COc1ccc2c(=O)n3c(nc2c1)-c1[nH]c2ccc(F)cc2c1CC3` [F-RUT, 10-fluoro-2-methoxyrutaecarpine], the “average thickness of blood-air-barrier” value with KLF10 KO mice [1] came out at 393 nm. The “collagen formation around the bronchus” value in the data set with KLF10 KO mice [2] (KLF10 KO mice, oral administration, 25% in OVA/Alum group, FIG. 5(c)) was 18%. In addition, the OVA/alum-induced lung inflammation entry in the data set with KLF10 KO mice [2] (KLF-10 KO mice, alternate-day oral administration, FIG. 5(b)) is given as “ameliorated the OVA/alum-induced lung inflammation”; with BALB/c mice it was “ameliorated the OVA/alum-induced lung inflammation”. Besides, the iNOS protein expression result with iNOS is on record as “suppressed their expressions in a concentration-dependent manner”. For the same molecule, the COX-2 enzyme activity entry in the data set on COX-2 [3] is recorded as “the enzyme activity is also inhibited”. In addition, the COX-2 protein expression result in the data set on COX-2 [4] is “suppressed their expressions in a concentration-dependent manner”. In addition, the cytotoxicity entry with CL1-3 is on record as “substantially no cytotoxicity”; in the data set on RAW264.7 (RAW264.7 cells, 0-20 μM, 24 h, FIG. 1(c)), “substantially no cytotoxicity”; in the data set with H460, “substantially no cytotoxicity”. In the data set on TNF-α, the “TNF-α released into the medium” value is on record as “suppressive effect of TNF-α released into the medium”. Besides, in the data set on RAW264.7 (compared to RUT), the “cytotoxicity compared to RUT” value is listed as “less cytotoxicity”. Besides, the “LPS-induced ROS level” value with zebrafish was “suppressed the LPS-induced ROS”. Also, the NO production entry with RAW264.7 macrophages is recorded as “suppressed NO production in a concentration-dependent (0-20 μM) manner”. Besides, the “LPS-induced NF-κB transcriptional activity” value in the data set with NF-κB was “inhibited LPS-induced NF-κB transcriptional activity”. Also, the cell invasion result in the data set on A2780 cells [5] is listed as “invasion inhibitory activity”. Also, the cell migration entry with A2780 cells [6] is on record as “significant effects against cell migration”. The “increase of phosphorylation of eNOS compared to the control group” value in the data set with eNOS was 1.4 fold. The “increase of TRPV1 protein amounts compared to the control group” value in the data set with TRPV1 is recorded as “two-fold”.
As to `O=c1c2ccccc2nc2n1CCc1c-2[nH]c2ccccc12` [RUT, Rutaecarpine], in the data set with KLF10 KO mice [1], the “average thickness of blood-air-barrier” value was 418 nm.
